# Where two headings read alike, the source gives them in different places.
# Key:
# [1] = target: T1, RNA polymerase II (Homo sapiens, UniProt P24928); type: biochemical; settings: for IC50: qPCR, read-out: IC50 (RNA synthesis)
# T1 construct: a well-defined nuclear extract providing the RNA polymerase II and a basal set of transcription factors; purchased Promega; host or cells: HeLa cell nuclear extract (endogenous enzyme)
# [2] = target: T1, RNA polymerase II; assay: In vitro transcription with primer extension and qPCR (EGFP-LNA1 probe) detection, pEGFP-N1 / CMV-EGFP templates; type: biochemical
# Method: (§1) Transcription reactions were set up as using the Promega HeLaScribe Nuclear Extract in vitro Transcription System were set up as described by the manufacturer with some modifications. The reaction volume was doubled to 50 μl. A master mix was prepared from a volume transcription buffer (20 mM HEPES, pH 7.9, 100 mM KCl, 0.2 mM EDTA, 0.5 mM DTT, 20% glycerol) corresponding to 22 μl minus the nuclear extract volume, MgCl2 to a final concentration of 3 mM, 40 Units RNase inhibitor, DNA template (1 μg pEGFP-N1 plasmid or 150 ng linear DNA fragment CMV-EGFP, respectively) and the nuclear extract following the manufacturer’s recipe. Aliquots of the master mix were transferred into reaction tubes containing different α-amanitin concentrations or water and incubated for 20 min at room temperature. Standard transcription reactions containing no α-amanitin were referred as ‘positive’, reactions containing α-amanitin or other inhibitors as ’inhibited’. A standard reaction containing no α-amanitin/inhibitors but also no NTPs was used as a ‘negative control transcription’. The reactions were started by the addition of the NTP mix to a final concentration of 400 μM each, except for the negative control where water was added. After incubating for 30 min at 30°C, the reactions were stopped by diluting with 400 μl of the RLT buffer from the Qiagen RNeasy Micro kit and stored at −80°C until proceeding with RNeasy cleanup. This was performed as recommended by the manufacturer, including on-column DNase treatment but without the addition of carrier RNA. The RNA was eluted using 15 μl water and stored at −80°C.
# The purified RNA was once more DNase-treated using the Epicentre BaselineZero DNase kit as recommended by the manufacturer, 8.8 μl of the RNA being digested in a final volume of 10 μl. As a second negative control, 50 ng of the linear DNA fragment CMV-EGFP were directly DNase-digested and further processed as the RNA samples (‘DNase control’). For reverse transcription with the Qiagen Sensiscript RT kit, 2 μl of the digestion reaction and 1 μM EGFPrev1 primer (Table 1) were used in a final reaction volume of 20 μl. After reaction, 1 μl of the reverse transcription mix was transferred to PCR tubes containing 24 μl PCR mix aliquots. The standard PCR amplification was performed using the Epicentre Failsafe PCR system with the Mix A and the EGFPrev1 and EGFPfrw1 (Table 1) primer mix. Positive PCR control reactions contained 50 ng pEGFP-N1 plasmid; negative PCR controls contained no DNA. After amplification, the products were analyzed by gel electrophoresis onto 1.5% agarose.
# For quantitation using SYBR detection, the Qiagen QuantiFast SYBR green qPCR kit was used. 1 μl of the reverse transcription mix was amplified in 25 μl reaction mix containing 500 nM of each EGFP-rev1 and EGFP-frw1 primer. For quantitation using the sequence-specific LNA probe EGFP-LNA1 at 250 nM, same primer set as well as an alternative primer set (EGFPfrw2 and EGFPrew2, Table 1) at 500 nM each and Sigma Jumpstart Taq ReadyMix for qPCR were used. 2 μl of the reverse transcription reaction were diluted into qPCR reactions with a final volume of 20 μl and qPCR performed in a Bio-Rad DNAEngine lightcycler. A qPCR standard curve was prepared from the CMV-EGFP DNA fragment and used for RNA copy number calculations. The amount of RNA in the inhibited probes was related to the RNA amount detected for the positive transcription reaction.
# [3] = target: T1, RNA polymerase II; assay: In vitro transcription (HeLaScribe nuclear extract) with primer extension and PCR gel detection; type: biochemical
# Method: as §1, with “The reactions were started by the addition of the NTP mix to a final concentration of 400 μM each, except for the negative control where water was added. After incubating for 30 min at 30°C, the reactions were stopped by diluting with 400 μl of the RLT buffer from the Qiagen RNeasy Micro kit and stored at −80°C until proceeding with RNeasy cleanup. This was performed as recommended by the manufacturer, including on-column DNase treatment but without the addition of carrier RNA. The RNA was eluted using 15 μl water and stored at −80°C.” left out
# The purified RNA was once more DNase-treated using the Epicentre BaselineZero DNase kit as recommended by the manufacturer, 8.8 μl of the RNA being digested in a final volume of 10 μl. […] After amplification, the products were analyzed by gel electrophoresis onto 1.5% agarose.
# [4] = target: T1, RNA polymerase II; assay: biochemical; settings: for IC50: QuantiGene, read-out: IC50 (RNA synthesis)
# [5] = system: RNA polymerase II; settings: cited from earlier work
# [6] = 200 nM, template HS-DNA_mut (TATA box mutated)
smiles,measurement,setting,value
CN1CC[C@H](c2c(O)cc(O)c3c(=O)cc(-c4ccccc4Cl)oc23)[C@H](O)C1 [flavopiridol],IC50,"[1]; HS-DNA_long template, 10 min at 30°C, second set of reactions",940 nM
same,IC50,"[1]; standard HS-DNA template, 30 min at 30°C, first set of reactions",> 125000 nM
CC[C@H](C)[C@@H]1NC(=O)CNC(=O)[C@@H]2Cc3c([nH]c4cc(O)ccc34)[S@+]([O-])C[C@H](NC(=O)CNC1=O)C(=O)N[C@@H](CC(N)=O)C(=O)N1C[C@H](O)C[C@H]1C(=O)N[C@@H]([C@@H](C)[C@@H](O)CO)C(=O)N2 [α-amanitin],qPCR C(T) value of inhibited transcription,"[2]; linear CMV-EGFP template, 2 μM, uninhibited C(T) 16.1, Figure 3B",24.5
same,qPCR C(T) value of inhibited transcription,"[2]; linear CMV-EGFP template, 20 μM, uninhibited C(T) 16.1, Figure 3B",28.1
same,qPCR C(T) value of inhibited transcription,"[2]; linear CMV-EGFP template, 50 μM, uninhibited C(T) 16.1, Figure 3B",37.0
same,qPCR C(T) value of inhibited transcription,"[2]; linear CMV-EGFP template, 100 μM, uninhibited C(T) 16.1, Figure 3B, C",27.9
same,qPCR C(T) value of inhibited transcription,"[2]; pEGFP-N1 plasmid template, 100 μM, uninhibited C(T) 17.6 / 18.0, Figure 3A, C",21.7
same,"inhibitory effect, short incubation vs standard (times lower)","[1]; 10 min, HS-DNA_long vs 30 min, standard template",ca. 10 ×
same,inhibitory effect on transcription (PCR product on gel),"[3]; linear CMV-EGFP template, 400, 100 and 20 μM, Figure 2B",gradually increasing inhibitory effects
same,amount of PCR product after transcription,"[3]; pEGFP-N1 plasmid template, 100 μM, Figure 2A",clearly diminished amount of PCR product
same,inhibition of transcription efficacy,"[4]; 200 nM, both templates (standard HS-DNA and TATA box mutant)",88 ± 1%
same,% RNA synthesis (compared to respective positive control),[4]; [6],12% ± 1%
same,Signal (RLU average),[4]; [6],130255 RLU
same,% RNA synthesis (compared to respective positive control),"[4]; 200 nM, template HS-DNA_std",12% ± 1%
same,Signal (RLU average),"[4]; 200 nM, template HS-DNA_std",161585 RLU
same,IC50,"[4]; Bead-HS-DNA template, Figure 5C",5700 nM
same,IC50,"[4]; HS-DNA_long template, 10 min at 30°C, Figure 6C",54 nM
same,IC50,"[4]; standard HS-DNA template, 30 min at 30°C, Figure 6A",4 nM
CCC(C)C1NC(=O)CNC(=O)C2Cc3c([nH]c4cc(OC)ccc34)[S+]([O-])CC(NC(=O)CNC1=O)C(=O)NC(CC(N)=O)C(=O)N1CC(O)CC1C(=O)NC(C(C)C(C)O)C(=O)N2 (stereo not shown) [6′–O-methyl-γ-amanitin],potency as RNA polymerase II inhibitor relative to α-amanitin (less potent),[5],about two-fold

# Source: article PMC4021065, “A novel, non-radioactive eukaryotic in vitro transcription assay for sensitive quantification of RNA polymerase II activity” (BMC Molecular Biology, 2014)
